According to patent US20210369853A1, “TARGETED PROTEASE DEGRADATION PLATFORM” (EUBULUS BIOTHERAPEUTICS INC., priority 2018, published 2021):
Read-outs that look alike come from different tables or passages of the source.

Experiments:
Type in all cases: cell-based
[1] = tested on: Human Glioma Cells U-87 MG; test: Cell proliferation experiment (Alarm blue, 72 h, EC50); settings: Homo sapiens; U-87MG cells
Procedure, shortened: (§1)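 Duplicate wells per concentration, 5-fold dilution series, 72 h continuous exposure of log-phase cells; read-out Alamar blue fluorescence, EC50 derived by curve fit with minimum, maximum and slope terms.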

[2] = tested on: Human Colon Cancer HCT-116; test: as above; settings: HCT116 cells
Procedure, shortened: as §1

[3] = tested on: Human Breast Cancer MDA-MB-231; test: as above; settings: MDA-MB-231 cells
Procedure, shortened: as §1

[4] = tested on: Human Small Cell Lung Cancer NCI-H82; test: as above; settings: Homo sapiens, NCI-H82; NCIH82 cells
Procedure, shortened: as §1

[5] = tested on: Human Acute Myelomonocytic Leukemia HL-60; test: as above; settings: HL-60 cells
Procedure, shortened: as §1

[6] = tested on: Human cervical adenocarcinoma cells Hela; test: as above
Procedure, shortened: as §1

[7] = tested on: Human Monocytic Leukemia MV4-11; test: as above; settings: Homo sapiens
Procedure, shortened: as §1

Human Colon Cancer HT-29 = test: as above; settings: HT-29 cells
Procedure, shortened: as §1

[8] = tested on: Human Monocytic Leukemia THP-1; test: as above; settings: THP-1 cells
Procedure, shortened: as §1

BRD4 = biological target: T1, BRD4 (Homo sapiens, UniProt O60885); test: Western blot, protein degradation (DC50)
T1 construct: endogenous in cells
Procedure, shortened: (§2)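 Cells treated with compound, lysed in RIPA and resolved by SDS-PAGE (4%-12%); PVDF blots probed with primary antibody overnight at 4° C, then secondary antibody, and developed with ECL. Band intensities quantified by densitometry to give degradation.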

PLK1 = biological target: T2, PLK1 (Homo sapiens, UniProt P53350); test: Western blot, protein degradation (DC50)
T2 construct: endogenous in cells
T2 sequence (P53350 whole entry): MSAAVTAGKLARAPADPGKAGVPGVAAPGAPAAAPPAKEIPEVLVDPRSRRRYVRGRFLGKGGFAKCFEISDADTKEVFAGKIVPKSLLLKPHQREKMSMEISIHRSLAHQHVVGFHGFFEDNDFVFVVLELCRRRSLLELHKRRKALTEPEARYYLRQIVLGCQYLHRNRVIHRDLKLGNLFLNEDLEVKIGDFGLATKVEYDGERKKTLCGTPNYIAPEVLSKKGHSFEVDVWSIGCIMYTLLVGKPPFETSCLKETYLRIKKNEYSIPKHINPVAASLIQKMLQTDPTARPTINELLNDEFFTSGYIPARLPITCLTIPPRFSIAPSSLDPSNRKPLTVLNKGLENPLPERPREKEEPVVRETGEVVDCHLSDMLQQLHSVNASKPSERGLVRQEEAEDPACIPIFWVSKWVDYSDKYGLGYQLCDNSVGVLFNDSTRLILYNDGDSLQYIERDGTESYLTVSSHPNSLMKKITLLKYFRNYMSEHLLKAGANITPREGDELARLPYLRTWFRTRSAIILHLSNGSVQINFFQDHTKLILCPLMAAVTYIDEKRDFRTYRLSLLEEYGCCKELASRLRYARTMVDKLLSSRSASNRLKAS
Procedure, shortened: as §2

[9] = tested on: Human Acute Lymphoblastic Leukemia Cells MOLT-4; test: Cell proliferation experiment (Alarm blue, 72 h, EC50); settings: MOL4-4 cells
Procedure, shortened: as §1

Daudi = test: Cell proliferation experiment (EC50), Daudi; settings: Homo sapiens; Daudi cells
[10] = 6 h, western blot, read-out: BRD4 DC50 (6 h)
[11] = 6 h, western blot, read-out: PLK1 DC50 (6 h)
[12] = 24 h, western blot, read-out: BRD4 DC50 (24 h)
[13] = 24 h, western blot, read-out: PLK1 DC50 (24 h)

| Structure (SMILES) | EC50 [1] [nM] | EC50 ([3]; Homo sapiens) [nM] | EC50 [4] [nM] | EC50 [5] [nM] | EC50 ([7]; MV4-11, MV4;11 cells) [nM] | EC50 (Human Colon Cancer HT-29; Homo sapiens) [nM] | EC50 (Daudi) [nM] | further results |
| --- | --- | --- | --- | --- | --- | --- | --- | --- |
| CC[C@@H]1C(=O)N(C)c2cnc(Nc3ccc(C(=O)NCCOCCOCCOCCNCCC(=O)Nc4cccc5c4CN(C4CCC(=O)NC4=O)C5=O)cc3OC)nc2N1Cc1ccc(Br)cc1 (stereo partly drawn) [UB-180634] | 100 to 1000 | 100 to 1000 | > 1000 | 100 to 1000 | < 10 | 100 to 1000 |  | EC50 ([2]; Homo sapiens, HCT-116): > 1000 nM; EC50 ([6]; Homo sapiens): 100 to 1000 nM; EC50 [8]: 100 to 1000 nM |
| CC[C@@H]1C(=O)N(C)c2cnc(Nc3ccc(C(=O)NCCCNCCCCC(=O)Nc4cccc5c4CN(C4CCC(=O)NC4=O)C5=O)cc3OC)nc2N1C1CCCC1 (stereo partly drawn) [UB-180658] | 100 to 1000 | 100 to 1000 | > 1000 | 100 to 1000 | 10 to 100 | 100 to 1000 |  | DC50 (BRD4; [10]): 10 to 100 nM; DC50 (PLK1; [11]): 10 to 100 nM; EC50 ([2]; Homo sapiens, HCT-116): 100 to 1000 nM; EC50 ([6]; Homo sapiens): 100 to 1000 nM; EC50 [8]: 100 to 1000 nM |
| CC[C@@H]1C(=O)N(C)c2cnc(Nc3ccc(C(=O)NCCOCCOCCOCCNCCCCC(=O)Nc4cccc5c4CN(C4CCC(=O)NC4=O)C5=O)cc3OC)nc2N1Cc1ccc(Br)cc1 (stereo partly drawn) [UB-180667] | 100 to 1000 | 100 to 1000 | 100 to 1000 | 100 to 1000 |  | 100 to 1000 |  | DC50 (BRD4; [12]): < 10 nM; DC50 (PLK1; [13]): < 10 nM; EC50 [9]: 100 to 1000 nM; EC50 ([7]; MV4;11 cells): 10 to 100 nM |
| CC[C@@H]1C(=O)N(C)c2cnc(Nc3ccc(C(=O)NCc4cn(CCNCCCC(=O)Nc5cccc6c5CN(C5CCC(=O)NC5=O)C6=O)nn4)cc3OC)nc2N1C1CCCC1 (stereo partly drawn) [UB-180681] | 100 to 1000 | 100 to 1000 | 100 to 1000 | 100 to 1000 |  | 100 to 1000 |  | DC50 (BRD4; [10]): < 10 nM; DC50 (PLK1; [11]): 100 to 1000 nM; EC50 [9]: 100 to 1000 nM; EC50 ([7]; MV4;11 cells): < 10 nM |
| CC[C@@H]1C(=O)N(C)c2cnc(Nc3ccc(C(=O)NC4CCN(CCOCCNCC(=O)Nc5cccc6c5CN(C5CCC(=O)NC5=O)C6=O)CC4)cc3OC)nc2N1C1CCCC1 (stereo partly drawn) [UB-180699] | 100 to 1000 | > 1000 | 100 to 1000 | 100 to 1000 |  | 100 to 1000 |  | DC50 (BRD4; [12]): < 10 nM; DC50 (PLK1; [13]): < 10 nM; EC50 [9]: 100 to 1000 nM; EC50 ([6]; Homo sapiens): 100 to 1000 nM; EC50 ([7]; MV4;11 cells): 10 to 100 nM; EC50 [8]: 100 to 1000 nM |
| CC[C@@H]1C(=O)N(C)c2cnc(Nc3ccc(C(=O)NCc4cn(CCNCCOCC(=O)Nc5cccc6c5CN(C5CCC(=O)NC5=O)C6=O)nn4)cc3OC)nc2N1Cc1ccc(Cl)s1 (stereo partly drawn) [UB-180720] | 100 to 1000 | 100 to 1000 | 100 to 1000 | 100 to 1000 |  | 100 to 1000 |  | DC50 (BRD4; 24 h, read-out: BRD4 DC50 (nM) (24 h)): < 10 nM; DC50 (PLK1; 24 h, read-out: PLK1 DC50 (nM) (24 h)): < 10 nM; EC50 [9]: 100 to 1000 nM; EC50 ([2]; Homo sapiens, HCT-116): 100 to 1000 nM; EC50 ([6]; Homo sapiens): 100 to 1000 nM; EC50 ([7]; MV4;11 cells): < 10 nM; EC50 [8]: 100 to 1000 nM |
| O=C1CCC(N2Cc3c(NC(=O)CNCCOCCOCCOCCNC(=O)c4ccc(Nc5ncc6c(n5)-c5ccc(Cl)cc5C(c5c(F)cccc5F)=NC6)cc4)cccc3C2=O)C(=O)N1 (stereo not drawn) [UB-180727] |  |  |  | > 1000 | 100 to 1000 |  |  |  |
| O=C1CCC(N2Cc3c(NC(=O)CNCCOCCOCCOCCOCCNC(=O)c4ccc(Nc5ncc6c(n5)-c5ccc(Cl)cc5C(c5c(F)cccc5F)=NC6)cc4)cccc3C2=O)C(=O)N1 (stereo not drawn) [UB-180801] |  |  |  | > 1000 | 100 to 1000 |  |  |  |
| O=C1CCC(N2Cc3c(NC(=O)CNCCOCCOCCOCCOCCNC(=O)[C@]4(Cc5cccc(Nc6nccs6)n5)CC[C@@H](Oc5cccc(Cl)c5F)CC4)cccc3C2=O)C(=O)N1 (stereo partly drawn) [UB-180802] |  |  |  | > 1000 | 100 to 1000 |  |  | DC50 (PLK1; 6 h, read-out: PLK1 DC50 (6 h)): < 10 nM; EC50 ([2]; Homo sapiens, HCT-116): 100 to 1000 nM |
| CC[C@@H]1C(=O)N(C)c2cnc(Nc3ccc(C(=O)NC4CCN(CCOCCN(CC(=O)Nc5cccc6c5CN(C5CCC(=O)NC5=O)C6=O)C(=O)OC(C)C(C)SSC[C@@H](NC(=O)[C@@H](CC(=O)O)NC(=O)[C@@H](CC(=O)O)NC(=O)[C@@H](CCCNC(=N)N)NC(=O)[C@@H](CC(=O)O)NC(=O)CC[C@H](NC(=O)c5ccc(NCc6cnc7nc(N)[nH]c(=O)c7n6)cc5)C(=O)O)C(=O)O)CC4)cc3OC)nc2N1C1CCCC1 (stereo partly drawn) [UB-180838] |  |  |  |  |  |  |  | EC50 [2]: 100 to 1000 nM; EC50 [3]: 100 to 1000 nM; EC50 [6]: 100 to 1000 nM; EC50 (Human Colon Cancer HT-29): 100 to 1000 nM |
| CC(OC(=O)N(CCOCCOCCOCCNC(=O)[C@]1(Cc2cccc(Nc3nccs3)n2)CC[C@@H](Oc2cccc(Cl)c2F)CC1)CC(=O)Nc1cccc2c1CN(C1CCC(=O)NC1=O)C2=O)C(C)SSC[C@H](NC(=O)[C@@H](CC(=O)O)NC(=O)[C@@H](CC(=O)O)NC(=O)[C@@H](CCCNC(=N)N)NC(=O)[C@@H](CC(=O)O)NC(=O)CC[C@H](NC(=O)c1ccc(NCc2cnc3nc(N)[nH]c(=O)c3n2)cc1)C(=O)O)C(=O)O (stereo partly drawn) [UB-180839] |  |  |  |  |  |  |  | EC50 [2]: 100 to 1000 nM; EC50 [3]: 100 to 1000 nM; EC50 [6]: 100 to 1000 nM; EC50 (Human Colon Cancer HT-29): 100 to 1000 nM |
| CC[C@@H]1C(=O)N(C)c2cnc(Nc3ccc(C(=O)NCCOCCOCCNCC#Cc4cccc5c4CN(C4CCC(=O)NC4=O)C5=O)cc3OC)nc2N1C1CCCC1 (stereo partly drawn) [UB-180845] | 100 to 1000 |  | 100 to 1000 |  | < 10 | 100 to 1000 | 100 to 1000 | DC50 (BRD4; 6 h, read-out: BRD4 DC50 (6 h)): < 10 nM |
| CC[C@@H]1C(=O)N(C)c2cnc(Nc3ccc(C(=O)NCCOCCOCCOCCNCC#Cc4cccc5c4CN(C4CCC(=O)NC4=O)C5=O)cc3OC)nc2N1C1CCCC1 (stereo partly drawn) [UB-180846] | 100 to 1000 |  | 100 to 1000 |  | < 10 | 100 to 1000 | 100 to 1000 | DC50 (BRD4; 6 h, read-out: BRD4 DC50 (6 h)): 10 to 100 nM |
| CC[C@@H]1C(=O)N(C)c2cnc(Nc3ccc(C(=O)NCCOCCOCCOCCNCCCc4cccc5c4CN(C4CCC(=O)NC4=O)C5=O)cc3OC)nc2N1C1CCCC1 (stereo partly drawn) [UB-180847] | 100 to 1000 |  | 100 to 1000 |  | 100 to 1000 | 100 to 1000 | 100 to 1000 |  |
| CC[C@@H]1C(=O)N(C)c2cnc(Nc3ccc(C(=O)NCc4cn(CCN(C)CCC(=O)Nc5cccc6c5CN(C5CCC(=O)NC5=O)C6=O)nn4)cc3OC)nc2N1C1CCCC1 (stereo partly drawn) [UB-180848] | 100 to 1000 |  | 100 to 1000 |  | < 10 | 100 to 1000 | 100 to 1000 |  |
| CC[C@@H]1C(=O)N(C)c2cnc(Nc3ccc(C(=O)NC4CCN(CCOCCN(CCO)CC(=O)Nc5cccc6c5CN(C5CCC(=O)NC5=O)C6=O)CC4)cc3OC)nc2N1C1CCCC1 (stereo partly drawn) [UB-180849] | 100 to 1000 |  | 100 to 1000 |  | 100 to 1000 | 100 to 1000 | 100 to 1000 |  |
| CC[C@@H]1C(=O)N(C)c2cnc(Nc3ccc(C(=O)NCCCC[C@@H](N)C(=O)Nc4cccc5c4CN(C4CCC(=O)NC4=O)C5=O)cc3OC)nc2N1C1CCCC1 (stereo partly drawn) [UB-180855] | 100 to 1000 |  | 100 to 1000 |  | 100 to 1000 | 100 to 1000 | 100 to 1000 |  |
| CC[C@@H]1C(=O)N(C)c2cnc(Nc3ccc(C(=O)NCCC[C@@H](N)C(=O)Nc4cccc5c4CN(C4CCC(=O)NC4=O)C5=O)cc3OC)nc2N1C1CCCC1 (stereo partly drawn) [UB-180856] | 100 to 1000 |  | 100 to 1000 |  | 100 to 1000 | 100 to 1000 | 100 to 1000 |  |
